# Tested on: P23H opsin
# Assay: Rhodopsin purification and regeneration (P23H cells treated with compound, regenerated with 9-cis-retinal, 480-500 nm absorbance)
# Conditions: FIG. 1; P23H opsin treated with 20 μM during mutant protein production, relative to vehicle (DMSO) alone
smiles,measurement,value
"CC(=O)/C=C/C1=C(C)CCCC1(C)C [β-ionone, reference compound]",regeneration of 500 nm absorbing pigment upon treatment with retinal,increase
